{"source": "paper PMC4356144", "about": "“The kinase LYK5 is a major chitin receptor in Arabidopsis and forms a chitin-induced complex with related kinase CERK1” (eLife, 2014)", "molecules": {"B1": {"name": "AtLYK5-HA (full length AtLYK5 under its native promoter in Atlyk5-2 mutant plants) (receptor, Arabidopsis thaliana, UniProt O22808 27-664, looked up)", "chain": "QQPYVNNHQLACEVRVYDNITNGFTCNGPPSCRSYLTFWSQPPYNTADSIAKLLNVSAAEIQSINNLPTATTRIPTRELVVIPANCSCSSSSGGFYQHNATYNLSGNRGDETYFSVANDTYQALSTCQAMMSQNRYGERQLTPGLNLLVPLRCACPTAKQTTAGFKYLLTYLVAMGDSISGIAEMFNSTSAAITEGNELTSDNIFFFTPVLVPLTTEPTKIVISPSPPPPPVVATPPQTPVDPPGSSSSHKWIYIGIGIGAGLLLLLSILALCFYKRRSKKKSLPSSLPEENKLFDSSTKQSIPTTTTTQWSIDLSNSSEAFGLKSAIESLTLYRFNDLQSATSNFSDENRIKGSVYRATINGDDAAVKVIKGDVSSSEINLLKKLNHSNIIRLSGFCIREGTSYLVFEYSENGSISDWLHSSGKKSLTWKQRVEIARDVAEALDYLHNYITPPHIHKNLESTNILLDSNFRAKIANFGVARILDEGDLDLQLTRHVEGTQGYLAPEYVENGVITSKLDVFAFGVAVLELLSGREAVTIHKKKEGEEEVEMLCKVINSVLGGENVREKLKEFMDPSLGNEYPLELAYTMAQLAKSCVATDLNSRPSVTQVLTTLSMIVSSSIDWEPSDDLLRSGSLGN", "notes": "AtLYK5 (At2g33580), Arabidopsis thaliana; genomic fragment with the 1.8 kb promoter and the coding region up to the stop codon, in pGWB13; also called wild-type AtLYK5; source: transgenic Arabidopsis (Atlyk5-2 background, native promoter), in crude extract or lysate"}}, "key": {"AtCERK1 kinase domain": {"biological_target": "T1, AtCERK1 kinase domain (Arabidopsis thaliana, UniProt A8R7E6)", "T1 construct": "gene CERK1; intracellular kinase domain 255-617 aa, N-terminal GST, pGEX 5X-1, E. coli BL21 (DE3)", "T1 sequence (A8R7E6 255-617)": "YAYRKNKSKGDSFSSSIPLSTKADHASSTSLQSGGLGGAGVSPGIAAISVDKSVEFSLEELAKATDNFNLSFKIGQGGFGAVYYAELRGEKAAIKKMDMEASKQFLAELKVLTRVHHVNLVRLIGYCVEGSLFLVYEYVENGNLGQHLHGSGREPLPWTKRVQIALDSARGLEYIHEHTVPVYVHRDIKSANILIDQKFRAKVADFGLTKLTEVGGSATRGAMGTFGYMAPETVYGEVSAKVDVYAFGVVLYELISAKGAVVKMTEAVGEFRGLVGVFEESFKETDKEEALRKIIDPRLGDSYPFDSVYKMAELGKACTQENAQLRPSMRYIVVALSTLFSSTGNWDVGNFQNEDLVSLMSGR", "experiment": "in vitro autophosphorylation, […] autoradiography", "format": "biochemical", "details": "50 mM Tris pH 7.6, 50 mM KCl, 10 mM MnCl2, 10 mM MgCl2, room temperature; labelled compound"}, "[1]": {"biological_target": "T2, AtLYK5 (full-length, HA-tagged) (Arabidopsis thaliana, UniProt O22808)", "T2 construct": "gene LYK5; full-length cDNA, HA tag, 35S promoter, Arabidopsis Col-0 protoplasts", "T2 sequence (O22808 27-664)": "B1 chain", "experiment": "competition of chitin magnetic bead pull-down, anti-HA immunoblot", "format": "biochemical", "details": "protoplasts treated with 10 µM oligomer for 15 min before harvest"}, "[2]": {"biological_target": "T3, AtLYK4 (full-length, HA-tagged) (Arabidopsis thaliana, UniProt O64825)", "T3 construct": "gene LYK4; full-length cDNA, HA tag, 35S promoter, Arabidopsis Col-0 protoplasts", "T3 sequence (O64825 23-612)": "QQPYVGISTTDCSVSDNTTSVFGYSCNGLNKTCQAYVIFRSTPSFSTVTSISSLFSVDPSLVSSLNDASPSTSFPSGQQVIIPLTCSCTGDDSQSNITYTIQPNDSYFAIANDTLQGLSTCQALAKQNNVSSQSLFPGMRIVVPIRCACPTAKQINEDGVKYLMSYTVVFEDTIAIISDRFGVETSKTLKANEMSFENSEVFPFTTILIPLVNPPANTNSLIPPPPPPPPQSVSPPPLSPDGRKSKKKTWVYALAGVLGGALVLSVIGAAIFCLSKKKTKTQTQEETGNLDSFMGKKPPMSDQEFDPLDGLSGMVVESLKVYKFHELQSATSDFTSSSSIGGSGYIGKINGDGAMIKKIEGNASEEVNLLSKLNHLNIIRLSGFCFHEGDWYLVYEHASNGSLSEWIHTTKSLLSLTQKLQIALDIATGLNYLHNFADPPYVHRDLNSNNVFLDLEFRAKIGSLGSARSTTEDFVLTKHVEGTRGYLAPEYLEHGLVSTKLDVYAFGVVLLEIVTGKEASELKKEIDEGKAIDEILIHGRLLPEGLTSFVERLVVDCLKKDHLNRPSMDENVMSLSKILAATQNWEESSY", "experiment": "competition of chitin magnetic bead pull-down, anti-HA immunoblot", "format": "biochemical", "details": "protoplasts treated with 10 µM oligomer for 15 min before harvest"}, "AtLYK5 (ectodomain)": {"biological_target": "T4, AtLYK5 (ectodomain) (Arabidopsis thaliana, UniProt O22808)", "T4 construct": "gene LYK5; ectodomain 27-278 aa, E. coli BL21, pMCSG73; thrombin site before His tag, thrombin-cleaved, then Strep-Tactin purified", "T4 sequence (O22808 27-278)": "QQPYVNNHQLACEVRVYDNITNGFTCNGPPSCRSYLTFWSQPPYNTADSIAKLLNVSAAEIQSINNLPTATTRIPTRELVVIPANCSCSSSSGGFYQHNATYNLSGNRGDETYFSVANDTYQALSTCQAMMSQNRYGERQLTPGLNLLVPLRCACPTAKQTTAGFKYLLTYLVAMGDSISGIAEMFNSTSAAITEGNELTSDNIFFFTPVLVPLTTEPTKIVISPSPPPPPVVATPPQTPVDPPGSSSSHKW", "experiment": "isothermal titration calorimetry", "format": "binding", "details": "10 mM HEPES pH 7.5, 100 mM NaCl, 25°C"}, "AtCERK1 (ectodomain)": {"biological_target": "T5, AtCERK1 (ectodomain) (Arabidopsis thaliana, UniProt A8R7E6)", "T5 construct": "gene CERK1; ectodomain 24-231 aa, pMAL-c2G (MBP fusion), amylose resin purified, E. coli", "T5 sequence (A8R7E6 24-231)": "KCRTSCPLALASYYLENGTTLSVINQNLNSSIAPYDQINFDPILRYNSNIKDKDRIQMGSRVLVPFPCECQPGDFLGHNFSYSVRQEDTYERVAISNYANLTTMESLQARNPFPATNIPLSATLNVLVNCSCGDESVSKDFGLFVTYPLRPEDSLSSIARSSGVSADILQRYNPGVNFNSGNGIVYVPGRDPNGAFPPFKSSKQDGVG", "experiment": "isothermal titration calorimetry", "format": "binding", "details": "10 mM HEPES pH 7.5, 100 mM NaCl, 25°C"}, "[3]": {"biological_target": "T6, wheat germ agglutinin (WGA)", "T6 construct": "gene WGA1", "experiment": "isothermal titration calorimetry", "format": "binding", "details": "10 mM HEPES pH 7.5, 100 mM NaCl, 25°C"}, "[4]": {"biological_target": "the molecule itself", "experiment": "SDS-PAGE without reducing agent and immunoblot; crude protein of transgenic Arabidopsis expressing AtLYK5-HA in Atlyk5-2, before or 15 min after 1 µM chitooctaose, boiled 5 min without DTT; anti-HA blot"}}}
{"molecule": "Nc1ncnc2c1ncn2[C@@H]1O[C@H](COP(=O)(O)OP(=O)(O)OP(=O)(O)O)[C@@H](O)[C@H]1O", "note": "[ATP]", "values": [{"measurement": "in vitro autophosphorylation, 32P autoradiography", "setting": "AtCERK1 kinase domain", "value": "the AtCERK1 kinase domain showed strong kinase activity as previously reported"}]}
{"molecule": "CC(=O)N[C@H]1[C@H](O[C@H]2[C@H](O)[C@@H](NC(C)=O)[C@H](O[C@H]3[C@H](O)[C@@H](NC(C)=O)[C@H](O[C@H]4[C@H](O)[C@@H](NC(C)=O)C(O)O[C@@H]4CO)O[C@@H]3CO)O[C@@H]2CO)O[C@H](CO)[C@@H](O[C@@H]2O[C@H](CO)[C@@H](O[C@@H]3O[C@H](CO)[C@@H](O[C@@H]4O[C@H](CO)[C@@H](O[C@@H]5O[C@H](CO)[C@@H](O)[C@H](O)[C@H]5NC(C)=O)[C@H](O)[C@H]4NC(C)=O)[C@H](O)[C@H]3NC(C)=O)[C@H](O)[C@H]2NC(C)=O)[C@@H]1O", "note": "(some centres unmarked) [8mer, chitooctaose]", "values": [{"measurement": "competition of chitin magnetic bead pull-down, anti-HA immunoblot", "setting": "[1]", "value": "The binding with AtLYK5 was strongly inhibited by chitoheptaose and chitooctaose"}, {"measurement": "competition of chitin magnetic bead pull-down, anti-HA immunoblot", "setting": "[2]", "value": "the binding with AtCERK1 or AtLYK4 was only slightly reduced by the same competitors"}, {"measurement": "Kd", "setting": "AtLYK5 (ectodomain)", "value": 1720, "unit": "nM"}, {"measurement": "Kd", "setting": "AtCERK1 (ectodomain)", "value": 455000, "unit": "nM"}, {"measurement": "Kd", "setting": "[3]", "value": 1600, "unit": "nM"}]}
{"molecule": "CC(=O)N[C@H]1[C@H](O[C@H]2[C@H](O)[C@@H](NC(C)=O)[C@H](O[C@H]3[C@H](O)[C@@H](NC(C)=O)[C@H](O[C@H]4[C@H](O)[C@@H](NC(C)=O)C(O)O[C@@H]4CO)O[C@@H]3CO)O[C@@H]2CO)O[C@H](CO)[C@@H](O[C@@H]2O[C@H](CO)[C@@H](O[C@@H]3O[C@H](CO)[C@@H](O[C@@H]4O[C@H](CO)[C@@H](O)[C@H](O)[C@H]4NC(C)=O)[C@H](O)[C@H]3NC(C)=O)[C@H](O)[C@H]2NC(C)=O)[C@@H]1O", "note": "(some centres unmarked) [7mer, chitoheptaose]", "values": [{"measurement": "competition of chitin magnetic bead pull-down, anti-HA immunoblot", "setting": "[1]", "value": "The binding with AtLYK5 was strongly inhibited by chitoheptaose and chitooctaose"}]}
{"molecule": "B1", "values": [{"measurement": "stoichiometry N", "setting": "[4]", "value": 2}]}
